Patent US5614370A, “Assay to identify human C5a antagonists and agonists” (Merck & Co., Inc., priority 1994, dated 1997)
“Also recorded” adds a separate entry of the source. Like-named read-outs stand apart in the source and are kept apart here. Non-standard residues stand in square brackets, D forms with d. Residues, ends and D or L forms follow the SMILES beside them. 1Nal = N[C@@H](Cc1cccc2ccccc12)C(=O)O; NMeF = CN[C@@H](Cc1ccccc1)C(=O)O; Cha = N[C@@H](CC1CCCCC1)C(=O)O; dCha = N[C@H](CC1CCCCC1)C(=O)O

T1: C5a receptor (Homo sapiens, UniProt P21730)
T1 construct: followed by a 20 μL aliquot of neutrophil membrane; endogenous in cells
T1 sequence (P21730 1-350): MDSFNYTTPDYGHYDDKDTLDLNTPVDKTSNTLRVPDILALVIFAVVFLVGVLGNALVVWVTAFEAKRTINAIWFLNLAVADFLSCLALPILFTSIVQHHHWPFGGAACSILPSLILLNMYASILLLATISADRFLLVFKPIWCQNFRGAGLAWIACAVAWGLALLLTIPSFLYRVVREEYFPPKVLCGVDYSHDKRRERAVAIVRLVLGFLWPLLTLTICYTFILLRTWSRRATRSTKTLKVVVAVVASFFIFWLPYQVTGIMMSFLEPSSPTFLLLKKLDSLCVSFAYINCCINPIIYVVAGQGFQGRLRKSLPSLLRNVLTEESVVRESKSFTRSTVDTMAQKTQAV

B1: C5a: 74 amino acid protein derived from the fifth component of serum complement during complement activation (protein, UniProt P01031 678-751, looked up)
C5a anaphylatoxin: TLQKKIEEIAAKYKHSVVKKCCYDGACVNNDETCEQRAARISLGPRCIKAFTECCVVASQLRANISHKDMQLGR
modifications: C5a anaphylatoxin

Experiments:
[1] = molecular target: T1, C5a receptor; assay: Competition binding against 125I-labeled intact C5a on human neutrophil (PMN) membranes
From the text: The affinity of these peptides is shown, for example, by radiolabeling intact C5a, and using the unlabeled peptide to compete the labeled C5a from C5a receptor binding sites on cellular membranes. Preparations of polymorphonuclear leukocytes (PMN's) are known to express the C5a receptor, (inhibition of the chemotactic response to C5a of this type of cell is one desirable utility for compounds identified by the instant assay). One method for preparing these membranes is described by Rollins, T. E. et al., [J. Biol. Chem. 264:520-526 (1988); see also U.S. Pat. No. 5,177,190, herein incorporated by reference as a method for isolating and purifying C5a receptor]. Briefly, this involves isolating PMN's in large quantity, disrupting these cells and obtaining the membrane fraction by centrifugation. Protein assay of the membrane preparation allows for standardization of the amount of protein added in any set of membrane binding experiments.
In FIG. 1, unlabeled C013 is used to compete with ^125 I-labeled C5a. […] In FIG. 2, the C013 is ^125 I labeled. Unlabeled C5a and unlabeled C013 are each used to compete the labeled C013 from C5a binding sites on the membranes. […] In FIG. 3a, ^125 I-C5a is competed from its binding site by unlabeled C064 and unlabeled, natural C5a (as opposed to recombinant C5a, which, however, may also obviously may be used for these purposes). […] In FIG. 3b, the inverse experiment is shown, wherein ^125 I-C064 is displaced by unlabeled C064 and unlabeled nC5a.
Hexapeptides within this class differing only at position X have similar affinities for the C5a receptor. As measured in competition binding experiments against ^125 I-C5a on human neutrophil membranes their IC50 's varied by only a factor of 3, from 25 to 80 nM (Table II):
^2 Binding experiments were carried out with human neutrophil
Binding is initiated by an addition of 20 μL of PMN membrane (typically 0.5 μg of protein) to each tube. After incubation for 90 min. at room temperature 2 ml of 0.05 M HEPES, pH 7.2, containing 0.5% BSA are added to the tube, the contents vortexed and filtered over a Whatman GF/C filter which has been soaked in 0.3% polyethylenimine. An additional 2 ml of buffer are added to the tube and used to wash the filter. All of the test samples are dissolved in DMSO, another water miscible organic solvent, or in an aqueous solvent. Non-specific background was determined by inclusion of a 100-fold excess of unlabeled C5a.
The percent inhibition is calculated according to the following formula: [formula]
Iodination of C5a was carded out with the use of chloramine T. (Rollins, T.E., and Springer, M.S. (1985) J. Biol. Chem. 260, 7157-7160). […] Concentrations of C5a were determined by amino acid analysis and by RIA (Amersham Corp.). Membranes were prepared from human PMN as described by Rollins, T.E., Sciliano, S and Springer, M.S., J. Biol Chem 264 520-526 (1988).

[2] = system: human neutrophil membranes; assay: GTPase activity in neutrophil membranes (G protein activation); assay type: biochemical
From the text: FIG. 6A and 6B. Chemotaxis and G protein activation elicited by the hexapeptides.
Since C5a evokes such a plethora of biological responses, it is difficult to ascertain a molecule's overall functional properties from any subset of responses. […] An alternative to investigating all of the responses generated by the C5a receptor, is to determine a molecule's ability to stimulate G protein activation. Such a measurement should give an integrated view of a molecule's agonist properties. As a measure of G protein activation we have investigated the peptides' abilities to stimulate GTPase activity in human neutrophil membranes:
The method of Kupper et al. (Kupper, R. W., Dewald, B., Jakobs, K. H., Baggiolini, M. and Gierschik, P. (1992) Biochem. J. 282, 429-434) was adapted for use in microtiter plates. Neutrophil membranes were suspended in 50 mM triethanolamine-HCl, 5 mM MES, pH 7.3, containing 1 mM EDTA, 5 mM MgCl2, 143 mM NaCl, 0.16 % BSA, 1 mM ouabain, 1 mM AMP-PNP, 0.5 mM ATP, 2.5 U/mL creatine phosphokinase,. 10 mM creatine phosphate, 0.1 mM PMSF and 10 ng/mL each of leupeptin, aprotinin and chymostatin. 50 μL of membranes containing 1-5 μg protein were added to 50 μL of the same buffer containing the test agent and 0.25 μM [γ-^32 P]-GTP (2,000 cpm/pmol) in the wells of a U-shaped microtiter plate. After incubation for 15-30 rain at 29° C., 100 μL of a 10% (w/v) charcoal suspension in 100 mM H3 PO4 was added and plates were centrifuged at 2000 rpm for 5 min. 100 μL of the supernatant was transferred to an Optiplate microtiter plate and 100 μL of Microscint-40 scintillation cocktail was added. Plates were counted in a Packard TopCount microtiter plate counter.

[3] = Table II, human neutrophil membranes, competition against 125I-C5a, read-out: Binding IC50

Molecule | IC50 [1, 3] | stimulation of GTPase activity / G protein activation in words ([2]; FIG. 6B) | other results
CC(C)C[C@H](NC(=O)[C@H](CC1CCCCC1)NC(=O)[C@H](CC1CCCCC1)NC(=O)[C@H](C)NC(=O)[C@H](CCCCN)NC(=O)[C@H](Cc1ccccc1)NC(=O)[C@@H](N)Cc1ccc(O)cc1)C(=O)N[C@H](Cc1ccccc1)C(=O)N[C@@H](CCCNC(=N)N)C(=O)O [C009, Tyr Phe Lys Ala Cha Cha Leu dPhe Arg] (H-YFKA[Cha][Cha]L[dF]R-OH) | – | – | Ki [1]: 8 nM
CN[C@@H](Cc1ccccc1)C(=O)N[C@@H](CCCCN)C(=O)N1CCC[C@H]1C(=O)N[C@H](CC1CCCCC1)C(=O)N[C@@H](Cc1ccccc1)C(=O)N[C@H](CCCNC(=N)N)C(=O)O [C026, NMeF--K--P-dCha-F-dR] (H-[NMeF]KP[dCha]F[dR]-OH) | 50 nM | full agonist in chemotaxis or C5a receptor-linked G-protein activation; also recorded: somewhat reduced ability to stimulate the GTP hydrolysis | –
CN[C@@H](Cc1ccccc1)C(=O)N[C@@H](CCCCN)C(=O)N1CCC[C@H]1C(=O)N[C@H](CC1CCCCC1)C(=O)N[C@@H](CC1CCCCC1)C(=O)N[C@H](CCCNC(=N)N)C(=O)O [C028, MePhe Lys Pro dCha Cha dArg] (H-[NMeF]KP[dCha][Cha][dR]-OH) | 25 nM | stimulates as much GTPase activity as does C5a | EC50 ([2]; FIG. 6B, read-out: ED50 for stimulation of GTPase activity): 100 nM
CN[C@@H](Cc1ccccc1)C(=O)N[C@@H](CCCCN)C(=O)N1CCC[C@H]1C(=O)N[C@H](CC1CCCCC1)C(=O)N[C@@H](Cc1cccc2ccccc12)C(=O)N[C@H](CCCNC(=N)N)C(=O)O [C061] (H-[NMeF]KP[dCha][1Nal][dR]-OH) | 80 nM | significantly lower GTPase activity | –
CN[C@@H](Cc1ccccc1)C(=O)N[C@@H](CCCCN)C(=O)N1CCC[C@H]1C(=O)N[C@H](CC1CCCCC1)C(=O)N[C@@H](Cc1c[nH]c2ccccc12)C(=O)N[C@H](CCCNC(=N)N)C(=O)O [C089] | – | does not stimulate G protein activation; also recorded: fails entirely to stimulate GTP hydrolysis | binding affinity in words [1]: excellent ability to inhibit C5a binding
B1 | 0.03 nM | – | IC50 ([1]; labeled ligand 125I-C5a, read-out: IC50 exhibited by the unlabeled ligand): 0.066 nM; GTPase activity ([2]; 3 nM C5a, absence of C089, raised from 46): 64 pmol/min/mg protein
